The values below come from ChEMBL document CHEMBL4229405, “Design, synthesis and biological evaluation of piperazino-enaminones as novel suppressants of pro-Inflammatory cytokines” (Bioorg Med Chem, 2018).

Each structure is given as a SMILES string. Calls of active or inactive are those of the source. The calls are words filed in the database; no cut-off is given here.

Series [1] in a line: Lipophilicity, log P of the compound. It counts as physicochemical. Particulars: octanol/water.
In series [2] the test system is J774.2. Kind of series: Antiinflammatory activity against mouse J774.2 cells assessed as inhibition of LPS-induced IL-6 release at 0.25 mM after 24 hrs by ELISA relative to control. Type of series: functional. Particulars: J774.2, 24 h. Background: An ELISA detects its analyte on a solid surface through an enzyme-linked reagent.
Series [3] deals with J774.2. The series can be described thus: Antiinflammatory activity against mouse J774.2 cells assessed as inhibition of LPS-induced TNFalpha release at > 0.5 mM after 24 hrs by ELISA. Type of series: functional, cell-based.
The test system of series [4] is J774.2. The series can be described thus: Antiinflammatory activity against mouse J774.2 cells assessed as inhibition of LPS-induced TNFalpha release at 1 mM after 24 hrs by ELISA relative to control. It counts as functional. The note with it: J774.2, 24 h.
Series [5] deals with J774.2. Kind of series: Antiinflammatory activity against mouse J774.2 cells assessed as inhibition of LPS-induced IL-6 release at 0.5 mM after 24 hrs by ELISA relative to control. It counts as functional. Particulars: for inhibition at 500 µM: J774.2, 24 h.
In series [6] the test system is J774.2. Kind of series: Antiinflammatory activity against mouse J774.2 cells assessed as inhibition of LPS-induced TNFalpha release at 0.25 mM after 24 hrs by ELISA relative to control. Type of series: functional. The note with it: J774.2, 24 h.
Series [7] relates to J774.2. Kind of series: Antiinflammatory activity against mouse J774.2 cells assessed as inhibition of LPS-induced TNFalpha release after 24 hrs by ELISA. It counts as functional, cell-based.
Series [8] concerns J774.2. The series can be described thus: Antiinflammatory activity against mouse J774.2 cells assessed as inhibition of LPS-induced IL-6 release at 1 mM after 24 hrs by ELISA relative to control. Particulars: for inhibition at 1000 µM: J774.2, 24 h. It counts as functional.
In series [9] the test system is J774.2. The series can be described thus: Antiinflammatory activity against mouse J774.2 cells assessed as inhibition of LPS-induced TNFalpha release at 0.25 to 1 mM after 24 hrs by ELISA. Type of series: functional, cell-based.

Consider `CCOC(=O)C1C(=O)C=C(Nc2ccc(N3CCN(CC)CC3)cc2)CC1C` (stereo unspecified), for which the logP (commonly a log measure of how a compound divides between an organic and an aqueous phase) in series [1] came to 3.45. Moreover, the inhibition (as a rule, the percentage by which the read-out fell short of the control) at 250 µM in the series with J774.2 [2] was found to be 25%. In the series with J774.2 [3], the inhibition result is “Active”.
Take `COC(=O)C1C(=O)C=C(Nc2ccccc2N2CCN(C)CC2)CC1c1ccccc1` (stereo unspecified): in series [1], the logP is 3.97.
For the compound `C[C@@H]1C[C@H]2[C@@H]3CCC4=CC(=O)C=C[C@]4(C)[C@@]3(F)[C@@H](O)C[C@]2(C)[C@@]1(O)C(=O)CO` [DEXAMETHASONE], in the series on J774.2 [4], the inhibition at 1000 µM stood at 62%. In addition, the inhibition at 500 µM with J774.2 [5] amounted to 40%.
In the case of `CCOC(=O)C1C(=O)C=C(Nc2ccc(N3CCN(C)CC3)cc2)CC1C` (stereo unspecified), in series [1], the logP amounted to 3.07.
Same read-out and setting: to `CCN1CCN(c2ccc(NC3=CC(=O)C(C(=O)OC)C(C)C3)cc2)CC1` (stereo unspecified) belongs 3.07.
With `CCN1CCN(c2ccc(NC3=CC(=O)C(C(=O)OC)C(c4ccccc4)C3)cc2)CC1` (stereo unspecified), in series [1], the logP was determined as 4.39. Besides, the figures for the inhibition at 250 µM with J774.2 [6] and in the series with J774.2 [2] were 65% and 86%, respectively. For the same compound, in the series on J774.2 [7], the inhibition result was “Dose-dependent effect”.
For the compound `CCOC(=O)C1C(=O)C=C(Nc2cccc(N3CCN(C)CC3)c2)CC1c1ccccc1` (stereo unspecified), the logP in series [1] was 4.37. The inhibition at 250 µM in the series with J774.2 [2] was 35%. In addition, in the series on J774.2 [3], the inhibition entry is “Active”.
Consider `CCOC(=O)C1C(=O)C=C(Nc2ccc(N3CCN(CC)CC3)cc2)CC1c1ccccc1` (stereo unspecified), for which the logP in series [1] is 4.77. The inhibition at 250 µM in the series on J774.2 [6] and in the series with J774.2 [2] was 62% throughout. Further, the inhibition entry in the series with J774.2 [8] and in the series on J774.2 [5] was “inactive” in each case.
For `CCOC(=O)C1C(=O)C=C(Nc2ccc(N3CCN(C)CC3)cc2)CC1c1ccccc1` (stereo unspecified), the logP in series [1] came to 4.39. In addition, the inhibition at 1000 µM in the series on J774.2 [4] is 100%. Further, the inhibition at 250 µM in the series on J774.2 [6] is 52%; in the series on J774.2 [2] it was 64 to 98%. The inhibition entry with J774.2 [8] was “inactive”. For the same compound, in the series on J774.2 [5], the inhibition at 500 µM came out at 100%.
`COC(=O)C1C(=O)C=C(Nc2ccc(N3CCN(C)CC3)cc2)CC1C` (stereo unspecified): the lipophilicity (logP) in series [1] was found to be 2.7. The inhibition result in the series with J774.2 [9] is “inactive”. Further, the inhibition at 250 µM in the series on J774.2 [2] turned out to be 53%.
Consider `CCOC(=O)C1C(=O)C=C(Nc2ccc(Cl)cc2)CC1C` (stereo unspecified), for which the figures for the inhibition at 1000 µM with J774.2 [4] and in the series with J774.2 [8] were 70% and 96%, respectively. Moreover, in the series with J774.2 [2], the inhibition at 250 µM amounted to 20%.
`CCOC(=O)C1C(=O)C=C(Nc2cccc(N3CCN(C)CC3)c2)CC1C` (stereo unspecified) yielded a logP in series [1] of 3.05.
The same measure, in the same setting: for `CCOC(=O)C1C(=O)C=C(Nc2ccccc2N2CCN(C)CC2)CC1c1ccccc1` (stereo unspecified) the value was 4.35.
In series [1], `CCOC(=O)C1C(=O)C=C(Nc2ccccc2N2CCN(C)CC2)CC1C` (stereo unspecified) registered a logP of 3.02. In addition, the inhibition at 1000 µM came out at 53% in the series on J774.2 [4] and 72% with J774.2 [8].
`COC(=O)C1C(=O)C=C(Nc2cccc(N3CCN(C)CC3)c2)CC1C` (stereo unspecified) registered a lipophilicity (logP) in [1] of 2.67. In the series on J774.2 [6], the inhibition at 250 µM was 40%.
As to `COC(=O)C1C(=O)C=C(Nc2ccccc2N2CCN(C)CC2)CC1C` (stereo unspecified), in series [1], the logP was determined as 2.65. Besides, the results for the inhibition at 1000 µM in the series with J774.2 [4] and with J774.2 [8] were 47% and 68%, respectively.
Compound `COC(=O)C1C(=O)C=C(Nc2ccc(N3CCN(C)CC3)cc2)CC1c1ccccc1` (stereo unspecified) had a log partition coefficient (logP) in [1] of 4.02. For the same compound, the inhibition at 1000 µM with J774.2 [4] is 80 to 82%. Besides, the inhibition at 250 µM in the series with J774.2 [6] was 30%; in the series on J774.2 [2], 9 to 70%. The inhibition at 500 µM with J774.2 [5] is 98%.
In [1], `COC(=O)C1C(=O)C=C(Nc2cccc(N3CCN(C)CC3)c2)CC1c1ccccc1` (stereo unspecified) had a logP of 3.99. Further, the figures for the inhibition at 250 µM in the series with J774.2 [6] and in the series with J774.2 [2] were 53% and 72%, respectively. For the same compound, the inhibition entry with J774.2 [7] is “Dose-dependent effect”.
